# Measurements: patent US10561638B2, “Methods for treating dependence” (Biotie Therapies, Inc., priority 2007, dated 2020)
# Entries after “also recorded” stand apart in the source; their conditions may differ.
# Legend:
# [1] = tested on: tissue noradrenaline and dopamine content; assay: Tissue catecholamines in SHRs after three oral doses 12 h apart; assay type: in vivo, spontaneously hypertensive rats; conditions: for increase in DA/NE ratio: 30 mg/kg; for dopamine vs vehicle / dopamine/norepinephrine ratio vs vehicle / norepinephrine vs vehicle: 30 mg/kg x3
# Description: Male SHRs (15-16 weeks old, Charles River, Wilmington, Mass., USA) were used in in vivo studies. On the day of the study, animals were weighed and randomly assigned to be dosed with either vehicle (control) or the appropriate dose of nepicastat (3, 10, 30 or 100 mg·kg^−1, po) or Compound B (30 mg·kg^−1, po) three consecutive times, twelve hours apart. At six hours after the third dose, the rats were anaesthetized with halothane, decapitated and tissues (cerebral cortex, mesenteric artery and left ventricle) were rapidly harvested, weighed, placed in iced perchloric acid (0.4 M), frozen in liquid nitrogen and stored at −70° C. until subsequent analysis. To quantify noradrenaline and dopamine concentrations, tissues were homogenized by brief sonication and centrifuged at 13,000 rpm for 30 minutes at 4° C. The supernatant, spiked with 3,4-dihydroxybenzylamine (internal standard), was assayed for noradrenaline and dopamine by HPLC using electrochemical detection.
# Nepicastat was used in in vivo biochemical studies to study the effects in spontaneously hypertensive rats (SHRs) and normal beagle dogs. On the day of the study, the animals were weighed and randomly assigned to receive either placebo (vehicle) or the appropriate dose of nepicastat. Each rat was dosed orally three times, 12 h apart, beginning in the morning. At 6 h after the third dose, the rats were anesthetized with halothane, decapitated, and the tissues (cerebral cortex, mesenteric artery and left ventricle) were rapidly harvested, weighed, placed in iced 0.4 M perchloric acid, frozen in liquid nitrogen and stored at −70° C. until analysis. Tissue NE and DA concentrations were assayed by HPLC using electrochemical detection. Male beagle dogs (10-16 kg, Marshall Farms USA Inc, North Rose, N.Y.) were used in the study. On the day of the study, dogs were randomly assigned to receive either placebo (empty capsule) or the appropriate dose of nepicastat. Each dog was dosed twice a day for 4.5 days. 6 h after the first dose on day 5, the dogs were euthanized with pentobarbital and the tissues (cerebral cortex. renal artery, left ventricle) harvested, weighed, placed in iced 0.4 M perchloric acid, frozen in liquid nitrogen and stored at −70° C. until analysis. Tissue NE and DA concentrations were assayed by HPLC using electrochemical detection.
# Fifteen to sixteen week old male spontaneously hypertensive rats (SHRs) (Charles River Labs) were allowed food and water ad libitum. Animals were weighed and randomly assigned to one of the following treatment groups: 1) distilled water vehicle (dH2O), or nepicastat at 3, 10, 30, and 100 mg/kg, 2) Compound B at 30 mg/kg in distilled water, or 3) PEG 400:dH2O vehicle or SKF-102698 at 30 mg/kg. Each rat was dosed orally (p.o., using a gavage needle) three times 12 hours apart, beginning in the morning. At six hours after the third dose rats were anesthetized with halothane, decapitated, and the cortex, mesenteric artery, and left ventricle were rapidly harvested, weighed, placed in iced 0.4 M perchioric acid, frozen in liquid nitrogen, and stored at −70° C. Tissue dopamine and norepinephrine concentrations were assayed by high performance liquid chromatography and electrochemical detection.
# Four series of statistical analyses were performed. The first series compared the rats treated with various doses of nepicastat, and Compound B at 30 mg/kg to the vehicle control animals. A nonparametric one-way analysis of variance (ANOVA) with factor Dose and blocking factor Day was performed for each tissue and strain separately. […] Pairwise analysis between treated and controls at each dose were carried out using Dunnett's test to control the experiment-wise error rate. The second statistical test compared SKF-102698 to the PEG-dH2O vehicle treated group using a nonparametric t-test. The third statistical test compared Compound B to nepicastat at doses of 30 mg/kg using a nonparametric t-test.
# [2] = tested on: rats; assay: Chronic (10 day) dosing behavioral tests in rats
# Description: The effects of chronic dosing of nepicastat in rats were examined. Between three and thirteen days prior to the first dosing day the rats were placed inside the startle apparatus and after a five minute acclimation period they were presented with a 118 dB noise burst on average once a minute (a variable inter-trial interval ranging between 30 and 90 seconds will be used) for 20 minutes. The startle responses were measured and a mean for the last twenty startle response was calculated for each rat.
# The following behavioral tests were administered during and after chronic dosing; body core temperature, motor activity, acoustic startle reactivity, and pre-pulse inhibition of acoustic startle.
# The animals were tested in an enclosed room with a white noise generator running Motor activity tests were conducted immediately after the body core temperature reading taken on dosing day ten (about 3 hours and 35 minutes after the morning daily dose of nepicastat, and SKF-102698, and 20 minutes prior to the daily administration of clonidine and d-amphetamine on dosing day ten). Motor activity tests were run for one hour. A diagnostic program was run on each of the motor activity chambers prior to each test session to assure that the photo beams and light sensors were operating properly. […] D-amphetamine was used as the positive control for this assay.
# Rat body core temperatures were obtained by inserting the rectal probe 2 cm into the colon of each rat. Each rat's body core temperature was measured three times and the average of the three reading was calculated. Body core temperature readings were obtained immediately prior to the ten day chronic dosing schedule (to obtain a baseline), and three and half hour after the morning daily dose of nepicastat, and SKF-102698, and 15 minutes prior to the daily administration of clonidine and d-amphetamine, on dosing days one, five and ten. […] Both clonidine (an alpha2 agonist), and d-amphetamine (a dopamine releaser) were used as the positive controls for this assay.
# Acoustic startle reactivity (a series of muscle contractions elicited by an intense burst of noise with a rapid onset), and pre-pulse inhibition (sensorimotor gating measured by analyzing any decrease in startle reactivity which occurs when a startling stimulus is immediately preceded by a non startling stimulus) were both measured in eight SR-Lab (San Diego Instruments, San Diego, Calif.) test stations. The rats were placed individually in a Plexiglas cylinder (10 cm diameter) which was housed in a ventilated sound-attenuating enclosure. Acoustic noise bursts (a broad band noise with a rise time and fall time of 1 msec) were presented via a speaker mounted 30 cm above the animal. Also, these speakers produced a 68 dB level of background noise throughout all test sessions. A piezoelectric accelerometer attached below the plexiglass cylinder transduced the subject's movement into a voltage which was then rectified and digitized (on a scale from 0 to 4095) by a PC computer equipped with SR-Lab software and interface assembly. A decibel meter was used to calibrate the speakers in each of the eight test station to ±1% of the mean. Additionally, a SR-Lab calibrating instrument was used to calibrate each of the eight startle detection apparatuses to ±2% of the mean. Startle reactivity and pre-pulse inhibition tests were run concurrently immediately alter the motor activity test (about 4 hours and 40 minutes after the morning daily injection of nepicastat, and SKF-102698, and 10 minutes after a supplemental administration of clonidine and d-amphetamine on dosing day ten).
# [3] = tested on: SHRs; assay: 30-day radio-telemetry study in SHRs
# [4] = tested on: short-term or working memory in rats; assay: Delayed-matching-to-position (DMTP) test; assay type: in vivo, Sprague Dawley rats
# Description: In the present DMTP study, rats were trained to remember the position of a lever across a scheduled delay of either 0, 8, 16 or 32 s in order to earn food reward. […] Another group of rats received only vehicle treatment throughout the experiment. […] The dependent measures in the present study included percentage of correct choices, the latency to make choice responses and the number of trials which the animals were able to complete during the 70 min test sessions. Changes in the former measure may indicate changes in memory and/or attentional function whereas changes in the latter two measures may be indicative of other non-cognitive effects of the drugs. Matching to position training began next. This and all subsequent training was conducted with the partitions fitted into the operant boxes. The sessions were initially 50 minutes long. Rats were placed in the operant box and the session began when the houselight was illuminated. Following a 30 s intertrial interval (ITI), one of the two levers (the sample lever) was inserted into the chamber. The lever remained inserted into the chamber until a lever-press response occurred. […] As soon as the magazine flap was pressed the magazine light was extinguished and both levers were inserted. […] The magazine light remained on until the flap was pressed. […] A 30 s ITI was initiated before the commencement of a new trial. The lever inserted as the sample lever was semi-randomly determined such that the right and lefthand levers were presented as the sample lever 8 times in a block of 16 trials. Following 24 sessions, the animals were performing the matching to position task with a high degree of accuracy. On Session 25 a variable delay interval was interposed between the depression of the sample lever and presentation of the levers on the choice trial. After a response to the sample lever, the choice levers were inserted following the first flap press occurring after either a 0 s (immediate), 4, 8 or 16 s delay. The order of the four types of trials (0, 4, 8 or 16 s delay) was semi-randomly determined with the constraint that in a 16 trial block, each delay occurred 4 times; twice on a left trial and twice on a right trial. […] The same trial was reinstated following the end of the ITI. From Session 25 onward the time-out period following incorrect choices was omitted and the session length was increased to 70 minutes. […] Due to poor performance at the 64 s delay, however, this delay was not used in any further sessions. On Session 59, delays of 0, 8, 16 and 32 s were used. These delays were used in all subsequent sessions. Only 51 of the 56 rats completed more than 24 trials (correction plus non-correction) during Session 59. These rats were selected and semi-randomly assigned to the following 7 groups such that the groups were matched on performance (percent correct, response latency and number of trials completed): […] Thus, the drug treatments administered to the seven groups during the 11 consecutive days of the present experiment were: The data collected and analyzed in the present DMTP study include 1) the percentage of correct responses; 2) the latency between performance of a response to the sample lever and the performance of the choice response and 3) the total number of correction and non-correction trials completed. The former two dependent measures were collected for the non-correction trials only. […] Two-way analysis of variance (ANOVA) with drug treatment as the between-subjects factor and delay (0, 8, 16 or 32 s) as the within-subjects factor was used to analyze percentage of correct choices and response latency. These analyses were conducted separately for each block of data. Significant interactions were followed by a one-way ANOVA which was conducted at each delay. A significant main effect from a one-way ANOVA was followed by a two-tailed Dunnett's t-test. One-way ANOVA followed by a post hoc Dunnett's test, when appropriate, was used to analyze the mean number of trials completed. […]
smiles,measurement,setting,value
"NCc1c[nH]c(=S)n1[C@@H]1CCc2c(F)cc(F)cc2C1 [Compound B, (R)-5-Aminomethyl-1-(5,7-difluoro-1,2,3,4-tetrahydronaphth-2-yl)-2,3-dihydro-2-thioxo-1H-imidazole]",increase in DA/NE ratio,[1]; cerebral cortex,1.1 fold
same,dopamine vs vehicle,[1]; cerebral cortex,significant increase
same,dopamine/norepinephrine ratio vs vehicle,[1]; cerebral cortex,no effect
same,norepinephrine vs vehicle,[1]; cerebral cortex,significant increase
same,increase in DA/NE ratio,[1]; left ventricle,3.5 fold
same,dopamine vs vehicle,[1]; left ventricle,significant increase
same,dopamine/norepinephrine ratio vs vehicle,[1]; left ventricle,significant increase
same,norepinephrine vs vehicle,[1]; left ventricle,did not significantly lower
same,increase in DA/NE ratio,[1]; mesenteric artery,2.6 fold
same,dopamine vs vehicle,[1]; mesenteric artery,significant increase
same,dopamine/norepinephrine ratio vs vehicle,[1]; mesenteric artery,significant increase
same,norepinephrine vs vehicle,[1]; mesenteric artery,did not significantly lower
C[C@H](N)Cc1ccccc1 [d-amphetamine],change in body weight from pre-dose,[2]; 10 days,significantly smaller change in body weight
same,pre-pulse inhibition,[2]; dosing day ten,Neither d-amphetamine nor SKF-102698 was significantly different
same,locomotor activity vs vehicle,"[2]; dosing day ten, nepicastat 5, 15, 50, SKF-102698 50 mg/kg bid, clonidine 20 μg/kg, d-amphetamine 2 mg/kg bid",significantly higher locomotor activity
same,body core temperature,"[2]; dosing days one, five, ten",significantly increasing body core temperature on day one
"CCOC(=O)[C@H](CCc1ccccc1)N[C@@H](C)C(=O)N1CCC[C@H]1C(=O)O [enalapril, reference compound]",body weights,[3]; enalapril 1 mg/kg,slightly decreased body weight
same,heart rate,[3]; enalapril 1 mg/kg,did not affect HR
same,left ventricular mass,[3]; enalapril 1 mg/kg,did not regress the hypertrophy
same,antihypertensive effect of mono-administration,[3]; enalapril 1 mg/kg or nepicastat 30 mg/kg (Series III),failed to lower blood pressure; also recorded: only a small antihypertensive effect; also recorded: did not induce significant antihypertensive effects
same,antihypertensive effect throughout the study,[3]; enalapril 10 mg/kg,−20 to −30 mmHg
same,body weights,[3]; enalapril 10 mg/kg,significantly decreased (p<0.05) or had no effect
same,heart rate,[3]; enalapril 10 mg/kg,transient small tachycardia
same,left ventricular mass,[3]; enalapril 10 mg/kg,"significantly reduced left ventricular mass in Series II, but not in Series I"
same,maximal decrease in MBP,"[3]; enalapril 10 mg/kg, within 1 hr after dosing on day 5",−29 mmHg
"CN1[C@@H]2C[C@@H](OC(=O)[C@H](CO)c3ccccc3)C[C@H]1[C@@H]1O[C@@H]12 [scopolamine, Scopolamine HBr, reference compound]",number of trials completed,[4]; all scopolamine treated groups,significantly reduced
same,percentage of correct choices vs Vehicle/Vehicle,[4]; scopolamine HBr 0.1 mg/kg s.c.,significantly impaired percentage of correct choices
